Laboratory results taken from US11319298B2 (Merck Sharp & Dohme Corp., priority 2016, dated 2022).

target: T1, human M4 muscarinic acetylcholine receptor (Homo sapiens, UniProt P08173); test: human FLIPR-based M4 PAM assay, CHO-K1 cells stably transfected with human M4 receptor and chimeric G-protein Gαqi5; assay type: cell-based; conditions: inflection point (IP) of dose response curve; acetylcholine added at 20% of maximum response; CHO-K1 human M4/Gαqi5, FLIPR Tetra
T1 construct: expressed in transfected cells; host or cells: CHO-K1
T1 sequence (P08173 1-479): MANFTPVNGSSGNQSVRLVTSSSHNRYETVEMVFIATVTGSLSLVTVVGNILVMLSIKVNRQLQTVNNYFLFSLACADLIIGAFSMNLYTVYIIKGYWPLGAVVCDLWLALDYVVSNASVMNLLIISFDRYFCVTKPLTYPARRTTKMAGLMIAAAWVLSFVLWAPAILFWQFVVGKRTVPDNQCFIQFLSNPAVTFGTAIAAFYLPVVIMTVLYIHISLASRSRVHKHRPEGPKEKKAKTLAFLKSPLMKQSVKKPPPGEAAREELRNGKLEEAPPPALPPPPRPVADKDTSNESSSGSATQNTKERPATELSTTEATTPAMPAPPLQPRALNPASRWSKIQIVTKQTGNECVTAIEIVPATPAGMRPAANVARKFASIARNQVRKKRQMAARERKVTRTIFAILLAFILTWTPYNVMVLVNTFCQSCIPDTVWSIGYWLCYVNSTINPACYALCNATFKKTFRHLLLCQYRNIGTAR
Experimental: In a typical experiment the M4 muscarinic acetylcholine receptor modulating activity of the compounds of the present invention was determined in accordance with the following experimental method. CHO-K1 cells stably transfected with human M4 receptor and chimeric G-protein Gαqi5 (Coward P, et al., Analytical Biochemistry, 270:242-248 (1999)) are thawed from liquid N2 storage, resuspended in growth medium, plated in black, clear bottom 384 well plates, and incubated 16-20 hours at 37° C., 5% CO2. On the day of assay, growth medium is removed, the cells are washed 2 times with wash buffer, and cells are incubated in dye loading buffer at 37° C., 5% CO2 for ˜1 hour. Following dye loading the cell plates are placed in a FLIPR Tetra instrument and while monitoring dye fluorescence (excitation […]), 10 uL of test substance at increasing concentrations is added, and fluorescence values are recorded for 4 min. Next, 10 uL of acetylcholine is added (final concentration calculated so as to achieve 20% of the maximum acetycholine response), and the fluorescence reading is continued for 3.5 min. In some cases, a third addition of acetylcholine (final concentration calculated to achieve 70% of the maximal acetylcholine response) is performed. The resulting dose response curves are fit to a 4 parameter logistic equation and the final result is determined as the inflection point (IP) of the curve
CHO-K1 cells stably transfected with human M4 receptor and chimeric G-protein Gαqi5 are thawed from liquid N2 storage, resuspended in growth medium, plated in black, clear bottom 384 well plates, and incubated 16-20 hours at 37° C., 5% CO2.
On the day of assay, growth medium is removed, the cells are washed 2 times with wash buffer, and cells are incubated in dye loading buffer at 37° C., 5% CO2 for ˜1 h. Following dye loading the cell plates are placed in a FLIPR Tetra instrument and while monitoring dye fluorescence ([…]), 10 uL of test substance at increasing concentrations is added, and fluorescence values are recorded for 4 min. Next, 10 uL of acetylcholine is added (final concentration calculated so as to achieve 20% of the maximum acetycholine response), and the fluorescence reading is continued for 3.5 min. In some cases, a third addition of acetylcholine (final concentration calculated to achieve 70% of the maximal acetylcholine response) is performed.

EC50 | Compound
378 nM | Cc1c(Cl)nc(CO)nc1N1CC[C@@H](Oc2ccc3c(c2)C(=O)N(C)C3)[C@@H](F)C1 [Example 43, 6-(((3S,4R)-1-(6-chloro-2-(hydroxymethyl)-5-methylpyrimidin-4-yl)-3-fluoropiperidin-4-yl)oxy)-2-methylisoindolin-1-one]
446 nM | Cc1nc2cc(OC3CCN(c4nc(CO)nc(Cl)c4C)CC3)ccc2s1 [Example 44, 4(4-chloro-5-methyl-6-(4-((2-methylbenzo[d]thiazol-5-yl)oxy)piperidin-1-yl)pyrimidin-2-yl)methanol]
493 nM | COC(=O)c1cc(C)c(N2CCC(Oc3ccc(OC)nc3)CC2)nc1C#N [Example 45, methyl 2-cyano-6-(4-((6-methoxypyridin-3-yl)oxy)piperidin-1-yl)-5-methylnicotinate]
939 nM | COC(=O)c1cc(C(=O)OC)c(N2CCC(Oc3ccc(OC)nc3)CC2)nc1C#N [Example 46, dimethyl 2-cyano-6-(4-((6-methoxypyridin-3-yl)oxy)piperidin-1-yl)pyridine-3,5-dicarboxylate]
25 nM | COc1ccc(OC2CCN(c3nc(CO)nc(Cl)c3C)CC2)cc1 [Example 47, (4-chloro-6-(4-(4-methoxyphenoxy)piperidin-1-yl)-5-methypyrimidin-2-yl)methanol]
44 nM | COc1ccc(OC2CCN(c3nc(CO)nc(Cl)c3C)CC2)cc1C#N [Example 48, 5-((1-(6-chloro-2-(hydroxymethyl)-5-methylpyrimidin-4-yl)piperidin-4-yl)oxy)-2-methoxybenzonitrile]
44 nM | COc1ccc(OC2CCN(c3ncnc(Cl)c3C)CC2)cn1 [Example 49, 4-chloro-6-(4-((6-methoxypyridin-3-yl)oxy)piperidin-1-yl)-5-methylpyrimidine]
49 nM | Cc1c(Cl)ncnc1N1CCC(Oc2cccc(C#N)c2)CC1 [Example 50, 3-((1-(6-chloro-5-methypyrimidin-4-yl)piperidin-4-yl)oxy)benzonitrile]
51 nM | Cc1c(Cl)nc(CO)nc1N1CCC(Oc2cccc(C#N)c2)CC1 [Example 51, 3-((1-(6-chloro-2-(hydroxymethyl)-5-methylpyrimidin-4-yl)piperidin-4-yl)oxy)benzonitrile]
53 nM | Cc1nc2ccc(O[C@@H]3CCN(c4nc(CO)nc(Cl)c4C)C[C@@H]3F)cc2o1 [Example 52, (4-chloro-6-((3S,4R)-3-fluoro-4-((2-methylbenzo[d]oxazol-6-yl)oxy)piperidin-1-yl)-5-methylpyrimidin-2-yl)methanol]
55 nM | COc1ncc(OC2CCN(c3nc(CO)nc(Cl)c3C)CC2)cc1F [Example 54, (4-chloro-6-(4-((5-fluoro-6-methoxypyridin-3-yl)oxy)piperidin-1-yl)-5-methylpyrimidin-2-yl)methanol]
59 nM | Cc1nc(Cl)c(C)c(N2CCC(Oc3cccc(C#N)c3)CC2)n1 [Example 55, 3-((1-(6-chloro-2,5-dimethylpyrimidin-4-yl)piperidin-4-yl)oxy)benzonitrile]
61 nM | COc1ccc(OC2CCN(c3ncnc(Cl)c3C)CC2)cc1 [Example 57, 4-chloro-6-(4-(4-methoxyphenoxy)piperidin-1-yl)-5-methypyrimidine]
64 nM | COC(=O)c1cc(C)c(N2CCC(Oc3cccc(C#N)c3)CC2)nn1 [Example 58, methyl 6-(4-(3-cyanophenoxy)piperidin-1-yl)-5-methylpyridazine-3-carboxylate]
66 nM | Cc1ncc(C)c(N2CCC(Oc3ccc4[nH]ncc4c3)CC2)n1 [Example 59, 5-((1-(2,5-dimethylpyrimidin-4-yl)piperidin-4-yl)oxy)-1H-indazole]
67 nM | Cc1c(Cl)ncnc1N1CCC(Oc2ccc3c(cnn3C)c2)CC1 [Example 60, 5-((1-(6-chloro-5-methylpyrimidin-4-yl)piperidin-4-yl)oxy)-1-methyl-1H-indazole]
84 nM | COCc1nc(Cl)c(C)c(N2CCC(Oc3ccc(OC)cc3)CC2)n1 [Example 61, 4-chloro-2-(methoxymethyl)-6-(4-(4-methoxyphenoxy)piperidin-1-yl)-5-methylpyrimidine]

More lines, now with the values behind:

Compound | EC50
Cc1c(Cl)nc(CO)nc1N1CCC(Oc2ccc3c(cnn3C)c2)CC1 [Example 31, (4-chloro-5-methyl-6-(4-((1-methyl-1H-indazol-5-yl)oxy)piperidin-1-yl)pyrimidin-2-yl)methanol] | 157 nM
Cc1c(Cl)nc(CO)nc1N1CCC(Oc2ccc3c(c2)C(=O)N(C)C3)CC1 [Example 33, 6-((1-(6-chloro-2-(hydroxymethyl)-5-methypyrimidin-4-yl)piperidin-4-yl)oxy)-2-methylisoindolin-1-one] | 210 nM
COc1ccc(OC2CCN(c3ncc(C#N)c(Cl)c3C)CC2)cn1 [Example 34, 4-chloro-5-(4-((6-methoxypyridin-3-yl)oxy)piperidin-1-yl)-5-methylnicotinonitrile] | 217 nM
Cc1c(Cl)nc(CO)nc1N1CCC(Oc2ccc3c(c2)NCCC3)CC1 [Example 35, (4-chloro-5-methyl-6-(4-((1,2,3,4-tetrahydroquinolin-7-yl)oxy)piperidin-1-yl)pyrimidin-2-yl)methanol] | 220 nM
Cc1c(Cl)nc(CO)nc1N1CCC(Oc2ccc3c(c2)CCCC3=O)CC1 [Example 36, 6-((1-(6-chloro-2-(hydroxymethyl)-5-methylpyrimidin-4-yl)piperidin-4-yl)oxy)-3,4-dihydronaphthalen-1(2H)-one] | 222 nM
COC(=O)c1cnc(N2CCC(Oc3ccc(OC)nc3)CC2)c(C)c1 [Example 37, methyl 6-(4-((6-methoxypyridin-3-yl)oxy)piperidin-1-yl)-5-methylnicotinate] | 225 nM
Cc1c(Cl)nc(CO)nc1N1CCC(Oc2ccc3c(c2)C(=O)CCC3)CC1 [Example 38, 7-((1-(6-chloro-2-(hydroxymethyl)-5-methylpyrimidin-4-yl)piperidin-4-yl)oxy)-3,4-dihydronaphthalen-1(2H)-one] | 252 nM
Cc1cc(C(=O)NCc2ccncc2)nnc1N1CCC(Oc2cnn(CC3CC3)c2)CC1 [Example 39, 6-(4-((1-(cyclopropylmethyl)-1H-pyrazol-4-yl)oxy)piperidin-1-yl)-5-methyl-N-(pyridin-4-ylmethyl)pyridazine-3-carboxamide] | 278 nM
COC(=O)c1cc(C)c(N2CC[C@H](Oc3ccc(OC)nc3)[C@H](F)C2)nn1 [Example 40, methyl 6-((3R,4S)-3-fluoro-4-((6-methoxypyridin-3-yl)oxy)piperidin-1-yl)-5-methylpyridazine-3-carboxylate] | 290 nM
Cc1c(Cl)nc(CO)nc1N1CCC(Oc2ccc3c(c2)C(=O)N(C)CC3)CC1 [Example 41, 7-((1-(6-chloro-2-(hydroxymethyl)-5-methylpyrimidin-4-yl)piperidin-4-yl)oxy)-2-methyl-3,4-dihdyroisoquinolin-1(2H)-one] | 322 nM
Cc1c(Cl)nc(CO)nc1N1CCC(Oc2cccc(S(C)(=O)=O)c2)CC1 [Example 42, (4-chloro-5-methyl-6-(4-(3-(methylsulfonyl)phenoxy)piepridin-1-yl)pyrimidin-2-yl)methanol] | 325 nM
Cc1nc(Cl)c(C)c(N2CCC(Oc3ccc4c(cnn4C)c3)CC2)n1 [Example 56, 5-((1-(6-chloro-2,5-dimethypyrimidin-4-yl)piperidin-4-yl)oxy)-1-methyl-1H-indazole] | 60 nM
